One assay deals with human VLDL. The following applies: cited from earlier work.
Assay [1] concerns atherogenic apo B-containing lipoproteins in human plasma. The following applies: cited from earlier work.
In assay [2] the test system is apo E null mice. The assay can be described thus: Plasma cholesterol in apo E null mice after i.v. 18L-2Y or R18L-2Y. The class given is in vivo. The following applies: 100 ug i.v. The source says:
Dual domain peptide that has LRKLRKRLLR (SEQ ID NO: 1), a sequence from apo E putative receptor binding domain, covalently linked to 18A (SEQ ID NO: 11) enhances uptake and degradation of apo B-containing lipoproteins. […] It has also been previously shown that that if the Lys residues are replaced by Arg, compared to the Lys-containing peptide, the resulting Arg-containing peptide has only 2% of lysis (Aikawa, M., et al. Circulation 106:1390-1396 2002). […] Rearrangement of the nonpolar face of 18L to incorporate aromatic residues at the center of the nonpolar face yields 18L-2. Addition of Tyr (for radiolabeling) yields 18L-2Y (FIG. 15). All of the Lys residues changed to Arg results in R18L2Y (FIG. 15).

Assay [3] relates to apo E null mice. The assay can be described thus: Oral feeding of peptides in chow to apo E null mice: plasma cholesterol and aortic sinus lesion.
Method: The peptides were mixed in normal chow (1 mg/4 g chow) and fed ad libitum.
The study was continued for 6 weeks.
Another assay relates to HepG2 cells. The assay can be described thus: Apo A-I / prebeta-HDL secretion by HepG2 cells. The following applies: for prebeta-HDL production: equal amount on weight basis (50 ug/ml), first overnight incubation; for prebeta-HDL amount after second and third overnight incubation: fresh cell medium without peptide. The class given is cell-based.
Assay [4] relates to apo E null mice. The assay can be described thus: Plasma cholesterol in apo E null mice after i.v. dual-domain peptides. The class given is in vivo. The following applies: iv, n=4. On the procedure: The peptides represented are Ac-hE-18A-NH2, Ac-hE4F-NH2, and Ac-hE-Sc2F-NH2. Peptides Ac-hE-18A-NH2, Ac-hE-4F-NH2 and Ac-hE-Sc18A were administered (i.v.) to apo E null mice (n=4) and plasma cholesterol values were determined at before administration (0 min), 5 min and 2 h after administration.
As described above, peptides Ac-hE-18A-NH2, Ac-hE-4F-NH2 and Ac-hE-Sc18A were administered (iv) to apo E null mice (n=4) and plasma cholesterol values were determined at before administration (0 min), 5 min and 2 h after administration.

Turning to “Ac-18A-NH2: control peptide; end protected 18A (DWLKAFYDKVAEKLKEAF) (Ac-DWLKAFYDKVAEKLKEAF-NH2) [reference compound]”, the “interaction with VLDL” value in the assay with human VLDL is given as “displacement of apo E from VLDL”. Also, the “association with atherogenic apo B-containing lipoproteins” value in assay [1] was “not”.
In the case of Ac-GFRRFLGSWARIYRAFVG-NH2 [R18L-2Y], the “ability to clear plasma cholesterol” value in the assay on apo E null mice [2] is on record as “increased ability to clear plasma cholesterol compared to 18L-2Y”. Also, the “plasma cholesterol at end of 6 week feeding” value in the assay with apo E null mice [3] (1 mg per 4 g chow) is listed as “significantly reduced”. Moreover, the “atherosclerotic lesion formation, aortic sinus, Oil Red O” value in the assay on apo E null mice [3] (1 mg per 4 g chow, 6 weeks, four week old female mice) is “significantly less lesion formation”. Also, the “plasma cholesterol levels at 15 days and 30 days” value with apo E null mice [3] (1 mg/4 g of chow per animal per day, n=5) was “significant decrease”.
In the case of “Ac-hE-4F-NH2: dual-domain cationic peptide, hE linked to 4F, end protected (Ac-LRKLRKRLLRDWFKAFYDKVAEKFKEAF-NH2)”, in the assay with HepG2 cells, the prebeta-HDL production result is “produced preβ-HDL”; the “prebeta-HDL amount after second and third overnight incubation” value was “produced significant amounts”. In addition, in the assay on apo E null mice [4], the “reduction in plasma cholesterol levels at 2 h time point” value is recorded as “large reduction”.
Consider “DWFKAFYDKVAEKFKEAF [4F, reference compound]”, for which, in the assay with HepG2 cells, the prebeta-HDL production result is listed as “produced preβ-HDL”; the “prebeta-HDL amount after second and third overnight incubation” value is “levels similar to that of control cell medium”.
For the substance LRKLRKRLLR, the “association with atherogenic apo B-containing lipoproteins” value in assay [1] is reported as “not”.

Values taken from patent US8557767B2, “Synthetic apolipoprotein E mimicking polypeptides and methods of use” (UAB Research Foundation, priority 2007, dated 2013).
